# Data published in ChEMBL document CHEMBL5465560, “Selectivity Literature for EUbOPEN Chemogenomic Library” (2024).
# Assays:
# [1] = biological target: T1, Dual specificity mitogen-activated protein kinase kinase 6 (Homo sapiens) (UniProt P52564); assay: Selectivity interaction (KinomeScan (DiscoverX)) EUB0000666a MAP2K6; conditions: at 10 µM
# T1 sequence (whole entry): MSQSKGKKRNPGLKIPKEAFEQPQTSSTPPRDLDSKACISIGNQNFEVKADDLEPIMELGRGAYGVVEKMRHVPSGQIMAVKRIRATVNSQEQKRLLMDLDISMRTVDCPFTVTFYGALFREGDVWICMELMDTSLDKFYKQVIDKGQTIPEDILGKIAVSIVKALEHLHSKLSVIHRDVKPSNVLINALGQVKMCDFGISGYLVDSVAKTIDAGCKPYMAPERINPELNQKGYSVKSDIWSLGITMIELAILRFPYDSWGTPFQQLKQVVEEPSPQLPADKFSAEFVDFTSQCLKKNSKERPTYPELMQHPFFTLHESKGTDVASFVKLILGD
# [2] = biological target: Serine/threonine-protein kinase Nek4 (Homo sapiens) (UniProt P51957); assay: Selectivity interaction (Kinase panel (Invitrogen)) EUB0000639a NEK4; conditions: at 200 nM
# [3] = biological target: Voltage-gated inwardly rectifying potassium channel KCNH2 (Homo sapiens, UniProt Q12809); assay: Selectivity interaction (Panel of non-epigenetic targets (kinases, GPCRs, ion channels, and transporters, Eurofins) ) EUB0000271b KCNH2; conditions: at 1 µM
# [4] = biological target: T2, cGMP-dependent protein kinase 2 (Homo sapiens) (UniProt Q13237); assay: Selectivity interaction (KinomeScan (DiscoverX)) EUB0001049a PRKG2; conditions: at 1 µM
# T2 sequence (whole entry): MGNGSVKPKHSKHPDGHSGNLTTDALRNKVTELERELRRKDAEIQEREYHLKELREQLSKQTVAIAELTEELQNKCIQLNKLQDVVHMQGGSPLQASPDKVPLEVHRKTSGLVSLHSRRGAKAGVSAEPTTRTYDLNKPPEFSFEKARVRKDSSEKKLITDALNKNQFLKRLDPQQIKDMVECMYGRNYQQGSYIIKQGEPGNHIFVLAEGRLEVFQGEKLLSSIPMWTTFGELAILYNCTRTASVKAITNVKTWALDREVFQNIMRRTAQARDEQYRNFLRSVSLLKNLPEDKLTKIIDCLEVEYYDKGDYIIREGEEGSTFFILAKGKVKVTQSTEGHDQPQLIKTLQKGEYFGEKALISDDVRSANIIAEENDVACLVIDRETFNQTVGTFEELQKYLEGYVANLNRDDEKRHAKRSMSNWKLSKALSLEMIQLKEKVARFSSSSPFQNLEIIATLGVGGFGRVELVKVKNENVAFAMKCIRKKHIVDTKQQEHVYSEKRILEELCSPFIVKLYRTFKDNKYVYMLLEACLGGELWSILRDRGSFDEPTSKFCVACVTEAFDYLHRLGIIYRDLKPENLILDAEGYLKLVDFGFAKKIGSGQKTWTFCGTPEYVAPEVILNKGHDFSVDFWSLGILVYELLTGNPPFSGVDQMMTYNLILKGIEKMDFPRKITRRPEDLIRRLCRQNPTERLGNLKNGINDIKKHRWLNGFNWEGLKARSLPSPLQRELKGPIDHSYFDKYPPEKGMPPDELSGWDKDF
# [5] = biological target: Cyclin-dependent kinase 1 (Homo sapiens) (UniProt P06493); assay: Selectivity interaction (Kinase screening (Nanosyn)) EUB0000604a CDK1
# [6] = biological target: Calcium/calmodulin-dependent protein kinase type 1D (Homo sapiens) (UniProt Q8IU85); assay: Selectivity interaction (KinomeScan (DiscoverX)) EUB0001079a CAMK1D; conditions: at 1 µM
# [7] = biological target: T3, MAP kinase-activated protein kinase 5 (Homo sapiens) (UniProt Q8IW41); assay: Selectivity interaction (KinomeScan (DiscoverX)) EUB0000229b MAPKAPK5; conditions: at 10 µM
# T3 sequence (whole entry): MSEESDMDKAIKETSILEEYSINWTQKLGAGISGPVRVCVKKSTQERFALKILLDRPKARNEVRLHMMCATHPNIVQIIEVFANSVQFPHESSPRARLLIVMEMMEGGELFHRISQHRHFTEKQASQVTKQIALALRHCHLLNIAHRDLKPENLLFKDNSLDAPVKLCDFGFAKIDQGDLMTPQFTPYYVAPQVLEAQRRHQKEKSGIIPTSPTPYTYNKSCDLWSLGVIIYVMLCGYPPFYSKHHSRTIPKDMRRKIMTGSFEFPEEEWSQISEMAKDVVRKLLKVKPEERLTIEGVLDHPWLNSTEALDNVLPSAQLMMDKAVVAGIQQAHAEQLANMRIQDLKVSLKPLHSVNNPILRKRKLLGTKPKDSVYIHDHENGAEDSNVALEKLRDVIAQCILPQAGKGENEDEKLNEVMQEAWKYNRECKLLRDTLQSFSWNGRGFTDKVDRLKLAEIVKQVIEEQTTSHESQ
# [8] = biological target: Serine/threonine-protein kinase MRCK alpha (Homo sapiens) (UniProt Q5VT25); assay: Selectivity interaction (Ambit KINOMEscan) EUB0000092b CDC42BPA; conditions: at 10 µM
# [9] = biological target: T4, Serine/threonine-protein kinase DCLK3 (Homo sapiens) (UniProt Q9C098); assay: Selectivity interaction (KinomeScan (DiscoverX)) EUB0000618a DCLK3; conditions: at 10 µM
# T4 sequence (whole entry): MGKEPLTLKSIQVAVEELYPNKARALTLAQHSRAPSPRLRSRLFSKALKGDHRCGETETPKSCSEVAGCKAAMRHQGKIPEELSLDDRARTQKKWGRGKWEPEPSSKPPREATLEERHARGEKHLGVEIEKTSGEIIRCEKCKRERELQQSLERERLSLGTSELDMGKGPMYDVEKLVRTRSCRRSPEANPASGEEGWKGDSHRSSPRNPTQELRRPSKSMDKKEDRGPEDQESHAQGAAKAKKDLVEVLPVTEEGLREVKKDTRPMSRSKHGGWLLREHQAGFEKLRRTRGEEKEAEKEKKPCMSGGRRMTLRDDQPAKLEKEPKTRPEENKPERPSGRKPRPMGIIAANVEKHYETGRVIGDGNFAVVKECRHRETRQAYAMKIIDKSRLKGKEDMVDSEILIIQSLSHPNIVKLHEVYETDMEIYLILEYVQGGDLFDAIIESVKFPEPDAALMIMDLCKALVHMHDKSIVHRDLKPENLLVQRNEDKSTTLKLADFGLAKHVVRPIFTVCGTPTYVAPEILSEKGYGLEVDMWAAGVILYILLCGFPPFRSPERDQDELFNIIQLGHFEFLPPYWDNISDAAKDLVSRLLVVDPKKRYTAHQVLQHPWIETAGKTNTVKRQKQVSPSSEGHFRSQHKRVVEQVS
# [10] = biological target: Cyclin-dependent kinase 13 (Homo sapiens, UniProt Q14004); assay: Selectivity interaction (ActivX KiNativ screen (ex vivo kinase selectivity in human PBMCs)) EUB0001619a CDK13; type: cell-based; conditions: PBMC, at 1 µM
# Chain of Cyclin-dependent kinase 13 (Q14004 whole entry, looked up): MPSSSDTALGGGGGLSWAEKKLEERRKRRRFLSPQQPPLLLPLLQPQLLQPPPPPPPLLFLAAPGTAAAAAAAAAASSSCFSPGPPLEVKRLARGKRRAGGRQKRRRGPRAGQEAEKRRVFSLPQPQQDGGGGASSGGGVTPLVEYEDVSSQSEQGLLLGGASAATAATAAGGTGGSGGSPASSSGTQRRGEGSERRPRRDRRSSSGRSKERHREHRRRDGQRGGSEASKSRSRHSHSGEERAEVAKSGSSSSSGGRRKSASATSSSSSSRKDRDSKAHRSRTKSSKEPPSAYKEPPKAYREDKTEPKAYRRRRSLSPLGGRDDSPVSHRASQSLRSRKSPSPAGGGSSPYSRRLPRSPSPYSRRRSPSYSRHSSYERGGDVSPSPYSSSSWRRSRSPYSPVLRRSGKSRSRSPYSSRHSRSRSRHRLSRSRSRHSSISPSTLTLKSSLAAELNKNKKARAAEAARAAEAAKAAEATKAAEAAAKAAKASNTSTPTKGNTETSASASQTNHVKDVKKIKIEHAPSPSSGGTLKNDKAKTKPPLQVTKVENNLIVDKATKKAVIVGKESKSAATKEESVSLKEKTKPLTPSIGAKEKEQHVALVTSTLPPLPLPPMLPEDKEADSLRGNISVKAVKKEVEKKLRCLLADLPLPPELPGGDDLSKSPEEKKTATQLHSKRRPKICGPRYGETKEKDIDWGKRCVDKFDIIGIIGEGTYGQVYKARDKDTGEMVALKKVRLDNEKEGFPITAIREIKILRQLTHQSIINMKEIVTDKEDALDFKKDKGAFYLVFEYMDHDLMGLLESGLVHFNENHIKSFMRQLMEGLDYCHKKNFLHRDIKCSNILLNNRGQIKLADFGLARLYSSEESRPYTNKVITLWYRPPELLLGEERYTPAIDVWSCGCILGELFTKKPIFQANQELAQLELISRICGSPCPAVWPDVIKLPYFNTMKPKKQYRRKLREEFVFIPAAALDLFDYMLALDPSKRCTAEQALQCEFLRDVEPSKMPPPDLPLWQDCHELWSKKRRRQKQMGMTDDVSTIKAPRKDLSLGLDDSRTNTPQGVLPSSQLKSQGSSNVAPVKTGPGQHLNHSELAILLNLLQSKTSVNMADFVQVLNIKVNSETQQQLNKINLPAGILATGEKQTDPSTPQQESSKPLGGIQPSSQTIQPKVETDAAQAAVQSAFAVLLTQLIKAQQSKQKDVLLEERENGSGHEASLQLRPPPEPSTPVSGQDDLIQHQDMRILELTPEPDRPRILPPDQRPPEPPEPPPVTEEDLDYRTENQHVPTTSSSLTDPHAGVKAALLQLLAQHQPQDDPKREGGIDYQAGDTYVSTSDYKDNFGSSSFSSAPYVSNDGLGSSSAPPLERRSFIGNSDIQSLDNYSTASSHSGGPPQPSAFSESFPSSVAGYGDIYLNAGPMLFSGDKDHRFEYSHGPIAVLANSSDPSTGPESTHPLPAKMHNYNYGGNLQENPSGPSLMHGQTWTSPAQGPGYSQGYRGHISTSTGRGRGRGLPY
# Chain of Cyclin-dependent kinase 1 (Homo sapiens) (P06493 whole entry, looked up): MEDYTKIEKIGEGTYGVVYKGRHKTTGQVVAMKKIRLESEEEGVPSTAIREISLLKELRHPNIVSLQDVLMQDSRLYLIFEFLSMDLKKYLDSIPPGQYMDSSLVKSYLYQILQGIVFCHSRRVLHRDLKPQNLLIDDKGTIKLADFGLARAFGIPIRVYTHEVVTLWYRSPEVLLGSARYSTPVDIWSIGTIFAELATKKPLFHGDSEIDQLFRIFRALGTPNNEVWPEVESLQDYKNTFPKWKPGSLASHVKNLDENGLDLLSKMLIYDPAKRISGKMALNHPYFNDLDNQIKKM
# Chain of Serine/threonine-protein kinase MRCK alpha (Homo sapiens) (Q5VT25 whole entry): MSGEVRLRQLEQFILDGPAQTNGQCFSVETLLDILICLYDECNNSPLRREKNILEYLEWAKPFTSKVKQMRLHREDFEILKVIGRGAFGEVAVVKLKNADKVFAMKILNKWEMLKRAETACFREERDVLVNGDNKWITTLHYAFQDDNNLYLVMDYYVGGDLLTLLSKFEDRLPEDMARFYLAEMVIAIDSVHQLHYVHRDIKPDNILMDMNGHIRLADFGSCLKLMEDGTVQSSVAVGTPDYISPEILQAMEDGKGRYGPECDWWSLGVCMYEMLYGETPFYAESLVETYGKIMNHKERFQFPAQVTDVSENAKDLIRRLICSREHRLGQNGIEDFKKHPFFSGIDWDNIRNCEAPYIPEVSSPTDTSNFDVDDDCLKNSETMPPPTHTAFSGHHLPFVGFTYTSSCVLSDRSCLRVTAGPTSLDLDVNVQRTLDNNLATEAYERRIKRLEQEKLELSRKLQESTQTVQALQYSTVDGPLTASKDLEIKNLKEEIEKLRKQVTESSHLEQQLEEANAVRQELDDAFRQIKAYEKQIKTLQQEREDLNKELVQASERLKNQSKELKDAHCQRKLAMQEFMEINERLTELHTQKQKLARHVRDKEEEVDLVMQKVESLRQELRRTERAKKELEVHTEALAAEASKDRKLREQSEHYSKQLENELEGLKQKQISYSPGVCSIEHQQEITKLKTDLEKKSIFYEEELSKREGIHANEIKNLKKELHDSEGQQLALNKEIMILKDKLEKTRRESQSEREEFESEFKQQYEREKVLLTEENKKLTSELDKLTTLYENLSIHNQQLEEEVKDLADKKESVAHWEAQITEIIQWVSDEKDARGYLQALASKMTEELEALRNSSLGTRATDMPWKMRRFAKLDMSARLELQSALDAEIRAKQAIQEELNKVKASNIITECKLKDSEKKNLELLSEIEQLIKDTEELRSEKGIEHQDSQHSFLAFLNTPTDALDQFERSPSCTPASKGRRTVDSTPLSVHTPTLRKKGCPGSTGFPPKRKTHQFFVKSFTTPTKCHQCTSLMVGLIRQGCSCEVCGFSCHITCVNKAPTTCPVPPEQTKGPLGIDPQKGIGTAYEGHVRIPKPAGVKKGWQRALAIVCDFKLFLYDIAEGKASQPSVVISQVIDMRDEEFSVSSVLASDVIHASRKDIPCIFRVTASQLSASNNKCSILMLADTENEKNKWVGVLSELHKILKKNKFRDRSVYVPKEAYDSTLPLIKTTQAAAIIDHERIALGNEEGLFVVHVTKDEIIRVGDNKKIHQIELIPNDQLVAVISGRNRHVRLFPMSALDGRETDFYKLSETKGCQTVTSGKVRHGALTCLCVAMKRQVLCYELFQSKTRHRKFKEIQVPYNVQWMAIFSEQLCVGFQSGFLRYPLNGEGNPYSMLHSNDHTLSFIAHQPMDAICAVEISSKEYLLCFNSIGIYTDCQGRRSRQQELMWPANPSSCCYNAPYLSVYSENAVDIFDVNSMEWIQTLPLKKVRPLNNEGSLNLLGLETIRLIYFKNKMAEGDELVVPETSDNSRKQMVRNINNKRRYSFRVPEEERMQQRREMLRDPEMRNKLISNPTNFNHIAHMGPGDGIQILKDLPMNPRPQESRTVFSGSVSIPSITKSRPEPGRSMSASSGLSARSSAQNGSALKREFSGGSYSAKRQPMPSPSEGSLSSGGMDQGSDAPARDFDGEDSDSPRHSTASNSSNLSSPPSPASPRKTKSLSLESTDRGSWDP
# Chain of Calcium/calmodulin-dependent protein kinase type 1D (Homo sapiens) (Q8IU85 whole entry, looked up): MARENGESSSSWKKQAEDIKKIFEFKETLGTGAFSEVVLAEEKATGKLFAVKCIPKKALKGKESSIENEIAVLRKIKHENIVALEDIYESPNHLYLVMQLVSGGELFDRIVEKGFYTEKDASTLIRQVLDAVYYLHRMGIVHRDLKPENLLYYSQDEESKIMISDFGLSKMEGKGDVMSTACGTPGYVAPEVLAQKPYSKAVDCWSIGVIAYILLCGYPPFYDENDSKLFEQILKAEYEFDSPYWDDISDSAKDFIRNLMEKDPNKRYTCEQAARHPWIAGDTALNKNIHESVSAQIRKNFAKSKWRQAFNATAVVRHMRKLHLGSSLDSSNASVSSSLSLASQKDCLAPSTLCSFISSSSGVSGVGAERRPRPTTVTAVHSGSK
# Chain of Voltage-gated inwardly rectifying potassium channel KCNH2 (Q12809 whole entry): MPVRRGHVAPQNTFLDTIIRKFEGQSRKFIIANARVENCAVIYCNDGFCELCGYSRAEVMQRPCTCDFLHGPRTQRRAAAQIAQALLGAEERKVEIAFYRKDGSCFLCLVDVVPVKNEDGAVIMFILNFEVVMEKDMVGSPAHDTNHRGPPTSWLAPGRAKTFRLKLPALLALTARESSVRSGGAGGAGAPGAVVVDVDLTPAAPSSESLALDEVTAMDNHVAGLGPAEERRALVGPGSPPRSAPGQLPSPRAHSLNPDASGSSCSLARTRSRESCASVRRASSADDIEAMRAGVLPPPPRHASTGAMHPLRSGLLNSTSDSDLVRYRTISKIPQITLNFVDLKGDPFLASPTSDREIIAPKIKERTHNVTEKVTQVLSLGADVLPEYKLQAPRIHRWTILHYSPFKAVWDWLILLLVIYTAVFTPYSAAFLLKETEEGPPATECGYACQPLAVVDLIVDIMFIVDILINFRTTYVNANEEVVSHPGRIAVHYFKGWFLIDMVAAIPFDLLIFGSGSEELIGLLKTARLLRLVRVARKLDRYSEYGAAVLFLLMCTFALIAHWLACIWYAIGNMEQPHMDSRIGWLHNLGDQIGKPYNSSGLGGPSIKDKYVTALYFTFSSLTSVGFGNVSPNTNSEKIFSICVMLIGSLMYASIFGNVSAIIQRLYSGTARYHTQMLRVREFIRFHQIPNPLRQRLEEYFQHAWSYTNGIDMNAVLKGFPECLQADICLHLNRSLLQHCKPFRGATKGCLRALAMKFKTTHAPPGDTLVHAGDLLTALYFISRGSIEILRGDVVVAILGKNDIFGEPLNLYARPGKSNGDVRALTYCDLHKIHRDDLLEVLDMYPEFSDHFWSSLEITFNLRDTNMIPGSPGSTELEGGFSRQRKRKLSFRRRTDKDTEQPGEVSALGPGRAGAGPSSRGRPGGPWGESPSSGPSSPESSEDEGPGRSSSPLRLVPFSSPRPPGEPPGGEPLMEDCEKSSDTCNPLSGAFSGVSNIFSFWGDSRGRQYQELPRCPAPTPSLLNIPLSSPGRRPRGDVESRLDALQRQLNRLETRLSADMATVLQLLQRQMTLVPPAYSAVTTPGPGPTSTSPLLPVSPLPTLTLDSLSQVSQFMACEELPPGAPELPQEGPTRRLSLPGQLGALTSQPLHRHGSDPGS
compound,measurement,setting,value
O=C(NOC[C@H](O)CO)c1ccc(F)c(F)c1Nc1ccc(I)cc1F,% of control,[1],100%
CC[C@@H]1[C@H](F)C(=O)N[C@@H]1COc1nccc2cc(C(N)=O)c(OC)cc12 [ZIMLOVISERTIB],% of inhibition,[2],3.25%
Cc1cc(C)cc([C@@H]2c3cc(C)ccc3NC(=O)CN2C(=O)c2ccc(Br)s2)c1,% of inhibition,[3],0%
COc1cc(Nc2nc(C)cc(-c3cnn4nc(OC)ccc34)n2)cc(C(F)(F)F)c1,% of control,[4],70%
Cc1cnc(Nc2ccc(F)cc2Cl)nc1-c1c[nH]c(C(=O)N[C@H](CO)c2cccc(Cl)c2)c1,% of inhibition,[5],7%
Nc1cnc(N2CCc3cc(S(=O)(=O)Nc4c(F)cc(Cl)cc4F)cc(N4CCCC4=O)c32)nc1 [TP-020n],% of control,[6],97%
COc1cc(N(C)c2ccnc3ccc(C(F)(F)F)cc23)cc(OC)c1OC,% binding,[7],63%
CCC(=O)N1CCN(c2ccc(-n3c(=O)ccc4cnc5ccc(-c6cnc7ccccc7c6)cc5c43)cc2C(F)(F)F)CC1,% of control,[8],0.65%
O[C@H]1CC[C@H](Nc2ncc3nc(Nc4c(F)cc(F)cc4F)n([C@H]4CCOC4)c3n2)CC1,% of control,[9],98%
N#Cc1cccc(-c2c[nH]c3ncnc(N4CCOCC4)c23)c1,% of inhibition,[10],3%
